# Experimental data from ChEMBL document CHEMBL3507680, “University of Dundee, Gates Library screen for HepG2 cell viability”.
# Assay: Human HepG2 cell viability assay in 384 well format
# Format: toxicity, cell-based
# Design: dose 125 nL, time 70.5 hour; concentration not given beside the values
# Settings: HepG2 cells, read-out: Inhibition
row,Compound,cytotoxicity at 70.5 h
1,N[C@H]1CN(S(=O)(=O)Cc2ccccc2)C[C@@H]1C1CC1,-6.71%
2,COCCC(=O)NCC(O)c1c(F)cccc1F (stereo not drawn),-7.9%
3,Cn1cccc1CN1CCC2(CCCN(C(=O)c3cnccn3)C2)C1 (stereo not drawn),17%
4,COCCNc1ccccc1CNC(=O)NCc1cnc(C)s1,-0.0167%
5,Cc1nc2c(c(C)c1CC(=O)NCc1cccc(C#N)c1)c(=O)[nH]n2C,-2.99%
6,COCCc1nnc(NC(=O)Cc2ccccc2Cl)o1,-13.9%
7,Cc1cnc(C(=O)NCC(c2ccc(C)o2)N2CCOCC2)cn1 (stereo not drawn),10.4%
8,O=C(NCc1ccccc1F)Nc1ccn(CCN2CCOCC2)n1,-15.3%
9,CCCN1CCCN(C(=O)Nc2ccc3c(c2)OCO3)CC1,-7.91%
10,Cc1cc(-c2cc(N)c(=O)n(CC(=O)N3CCCC(C)C3)n2)c(C)o1 (stereo not drawn),-9.35%
11,CCOC(=O)N1CCN(C(=O)c2cc(-c3ccccc3F)on2)CC1,-0.971%
12,CS(=O)(=O)N[C@H]1CCO[C@]2(CCN(CC3CCOCC3)C2)C1,-11.1%
13,CN(CCc1ccncc1)CCc1nccs1,-12.8%
14,CCCNCc1ncc(C)c(OC)c1C,-6.98%
15,CN1CCN(Cc2cccc(NCc3cc[nH]n3)c2)CC1,-5.29%
16,Cc1cccc(N2Cc3nc(=O)[nH]n3C2=O)c1,-14.3%
17,Cc1nc[nH]c1-c1nccn1-c1ccc(C(N)=O)c(N2CCCC2)c1,20.6%
18,O=C(NC1CCN(c2ncccn2)CC1)c1sccc1C1CC1,-5.49%
19,CC(NC(=O)c1cc2n(n1)CCCN(C)C2)c1cn2ccsc2n1 (stereo not drawn),24.9%
20,Cc1cnn(CCNCC(=O)NCCOc2ccccc2)c1,39.9%

row,Compound,cytotoxicity at 70.5 h
1,c1cnc(N2CCO[C@H]3CN(CC4CC4)C[C@H]32)nc1,-8.99%
2,CNS(=O)(=O)c1cccc(C(C)NCc2ccsc2)c1 (stereo not drawn),-0.542%
3,O=C(c1ccc2nccnc2c1)N1CCN(CCO)[C@@H]2CS(=O)(=O)C[C@@H]21,-9.05%
4,CNC(=O)c1cccc(NC(=O)NC(C)c2cc(C)oc2C)c1C (stereo not drawn),-8.35%
5,CN(Cc1ccco1)C(=O)CN1CCCCC1Cn1cncn1 (stereo not drawn),-8.72%
6,CCn1nc(C)c(CNC(=O)NCC(C)(O)c2ccc(C)o2)c1C (stereo not drawn),-13.6%
7,CCC(NC(=O)C(C)(C)C)c1ccccc1C (stereo not drawn),25.3%
8,Cc1ccc(-c2noc(CN3CCC(N4CCNC4=O)CC3)n2)cc1,20.8%
9,CN1CCN2C(=O)N(C3CCOCC3)C[C@H]2C1,-2.12%
10,COC(=O)c1cccc(S(=O)(=O)NCC(c2ccco2)N2CCCC2)c1 (stereo not drawn),-14.2%
11,CS(=O)(=O)N1CC2(CCN(CC3CC3)C2)Cc2ccccc21 (stereo not drawn),-6.8%
12,Cc1ccc(CN(C)Cc2nc3c(cnn3C)c(=O)[nH]2)o1,-2.01%
13,Cc1cccc2c(CCNC(=O)NCCC[S+](C)[O-])c[nH]c12 (stereo not drawn),-1.72%
14,Cn1ccnc1CN1CCC(F)(F)C2(CCN(c3cnccn3)C2)C1 (stereo not drawn),19.3%
15,Cc1nc(C)n(CC2CCCCN2CC(=O)Nc2cc(C)on2)n1 (stereo not drawn),-13.4%
16,CC(C(=O)Nc1cc(F)ccc1F)N1CCN(Cc2ncc[nH]2)CC1 (stereo not drawn),42.5%
17,CCn1cc(NC(=O)NCC(c2cccc(F)c2)N(C)C)cn1 (stereo not drawn),-4.54%
18,CCC(CC)C(=O)N1CCOC2(COCCN(CC(=O)NC)C2)C1 (stereo not drawn),-11.7%
19,CCn1c(C2CCN(C(=O)c3cc(CC(C)C)on3)CC2)nn(C)c1=O,6.02%
20,COc1c(C2CCCN2C(=O)c2ccc(O)nc2)c(C)nn1C (stereo not drawn),-8.59%

row,Compound,cytotoxicity at 70.5 h
1,COc1cn(CC(=O)N2CCN(c3ccc(Cl)cc3)CC2)c(C)cc1=O,23.5%
2,CN(Cc1nccn1C)S(=O)(=O)Cc1cccc(C#N)c1,-12.6%
3,O=C(C[C@@H]1COC[C@H]2CN(Cc3ccncc3)C[C@@H]12)N1CCOCC1,-13.2%
4,c1cc(CN2C[C@@H]3OCCN(CCN4CCCC4)[C@@H]3C2)cs1,-8.5%
5,O=C(O)CN1CCC(F)(F)C2(CCN(c3ccccn3)C2)C1 (stereo not drawn),2.21%
6,CC(C)c1noc(CCC(=O)NCC2CCS(=O)(=O)C2)n1 (stereo not drawn),1.64%
7,COCC(=O)N1C[C@H]2CCCC(OCc3cccnc3)[C@H]2C1 (stereo partly drawn),-6.29%
8,CNS(=O)(=O)CC1CCCN1c1ccccn1 (stereo not drawn),-4.24%
9,O=C(NCCc1nnc2n1CCC2)c1ccccc1OC1CCCC1,-9.31%
10,CCOC(=O)[C@@H]1[C@H]2CN(C(=O)OC)CCN2C[C@H]1c1ccccc1,-5.21%
11,CC1CCC(O)(CSc2nnnn2C2CC2)CC1 (stereo not drawn),-1.68%
12,O=C(c1ccc(F)c(F)c1)N1CCC(Cn2cc(CO)nn2)CC1,-3.06%
13,CC(=O)N1CCN(Cc2ccc3c(c2)OCCO3)CC(O)C1 (stereo not drawn),-10.7%
14,CCOC(=O)N1CCN(C(=O)C2CC(=O)N(c3ccccc3Br)C2)CC1 (stereo not drawn),-2.99%
15,CC(=O)NS(=O)(=O)c1ccc(F)c(C(F)(F)F)c1,-6.35%
16,Cn1cccc1CN1CCc2ncnc(-c3cccnc3)c2CC1,-4.34%
17,CCc1nnsc1C(=O)N(C)Cc1ccco1,-1.63%
18,Cn1nccc1-c1ncc2c(c1C(=O)O)CCN(Cc1ccncc1)C2,-0.712%
